Laboratory results as given in patent publication US8845999B2 (The Regents of the University of California, priority 2005, dated 2014).
Where two headings read alike, the source gives them in different places.

Experiments:
[1] = biological target: T1, human GLUT1 (Homo sapiens, UniProt P11166); conditions: cited from earlier work
T1 construct: host or cells: human erythrocytes (endogenous transporter)
T1 sequence (P11166 1-492): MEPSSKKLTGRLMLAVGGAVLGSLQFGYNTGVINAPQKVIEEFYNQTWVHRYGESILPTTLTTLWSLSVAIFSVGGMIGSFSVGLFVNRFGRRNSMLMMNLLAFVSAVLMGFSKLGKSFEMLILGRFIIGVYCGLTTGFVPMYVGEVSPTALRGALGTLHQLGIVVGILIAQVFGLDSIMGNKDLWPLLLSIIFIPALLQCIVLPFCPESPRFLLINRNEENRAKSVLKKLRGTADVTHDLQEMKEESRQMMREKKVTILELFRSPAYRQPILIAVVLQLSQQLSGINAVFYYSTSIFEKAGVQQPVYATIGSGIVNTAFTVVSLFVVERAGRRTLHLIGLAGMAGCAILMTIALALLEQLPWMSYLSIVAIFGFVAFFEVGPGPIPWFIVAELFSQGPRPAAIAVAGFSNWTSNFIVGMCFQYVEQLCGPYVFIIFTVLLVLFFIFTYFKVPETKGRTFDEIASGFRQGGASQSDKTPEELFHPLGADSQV

[2] = system: Hexokinase; experiment: Hexokinase kinetics (Bessel 1972); assay type: biochemical
[3] = system: T2, Hexokinase; experiment: Hexokinase kinetics (Bessel 1972); assay type: biochemical; conditions: from Table 2
T2 construct: Hexokinase Ki; other: Bessel (1972); Hexokinase Vmax; D-glucose = 1; hexokinase maximum velocity lower than that for D-glucose

[4] = system: T2, Hexokinase; parameters: Hexokinase Vmax: unit not given here; conditions: Bessel (1972), cited from earlier work; for Hexokinase Vmax: D-glucose = 1
[5] = system: SGLTs; experiment: Whole body PET scan of human subjects; assay type: in vivo
Procedure: For a 50-70 kg person, 10 mC of methyl 4-deoxy-4-[^18F]fluoro-D-glucopyranoside dissolved in <1 ml saline is injected intravenously, and the distribution of the tracer is followed dynamically in whole body PET scans for up to 2 hours (up to 8 scans at different time intervals). SGLT activity in organs and tissues is determined from the tracer uptake. The anatomical location of tracer uptake in both normal subjects and cancer patients is determined using CT scans.
FIGS. 4 and 5 are nonlimiting examples of 2-[^18F]-FDG and Methyl 4[^18F]-FDG scans, respectively, of the same human subject.
FIG. 6 is a nonlimiting example of a whole body PET scan of a patient with Glucose-Galactose-Malabsorption (missing functional SGLT1 in their body), after being injected with Me-[18F]-4FDG.

[6] = system: SGLTs; experiment: MicroPET images of rat's brain after intravenous injection of radiofluorinated glucose derivatives; conditions: same animal, images 50-70 min after intravenous injection, FIG. 7
Procedure: A bolus of a radiolabeled tracer is administered to a non-human primate, rodent, or other non-human mammal, intravenously or orally, and the distribution of tracer transport activity is followed by radiographic means, e.g., PET, microPET and/or SPECT. For PET, an intravenous dose of the tracer contains ˜200 μC/Kg (body weight) methyl 4-[^18F]fluoro-4-deoxy-D-glucopyranoside dissolved in <1 ml saline. […] The identity of each organ and tissue taking up the tracer is confirmed by CT scans.
FIG. 7 presents MicroPET images of a rat's brain after injection of radiofluorinated glucose derivatives. […] These experiments were performed in the same animal at three different occasions. […] The images were acquired using a Concorde 220 microPET camera (Siemens/CTI, Knoxville, Tenn.). The animal was kept under anesthesia with 2% isoflurane in oxygen during all three experiments. Injectable solutions of all radiotracers were prepared in normal saline (0.9% NaCl).

[7] = Preliminary microPET studies of brain uptake; conditions: rodent
[8] = biological target: T3, SGLT1 (Homo sapiens, UniProt P13866); experiment: Affinity for SGLT1; assay type: biochemical
T3 sequence (P13866 1-664): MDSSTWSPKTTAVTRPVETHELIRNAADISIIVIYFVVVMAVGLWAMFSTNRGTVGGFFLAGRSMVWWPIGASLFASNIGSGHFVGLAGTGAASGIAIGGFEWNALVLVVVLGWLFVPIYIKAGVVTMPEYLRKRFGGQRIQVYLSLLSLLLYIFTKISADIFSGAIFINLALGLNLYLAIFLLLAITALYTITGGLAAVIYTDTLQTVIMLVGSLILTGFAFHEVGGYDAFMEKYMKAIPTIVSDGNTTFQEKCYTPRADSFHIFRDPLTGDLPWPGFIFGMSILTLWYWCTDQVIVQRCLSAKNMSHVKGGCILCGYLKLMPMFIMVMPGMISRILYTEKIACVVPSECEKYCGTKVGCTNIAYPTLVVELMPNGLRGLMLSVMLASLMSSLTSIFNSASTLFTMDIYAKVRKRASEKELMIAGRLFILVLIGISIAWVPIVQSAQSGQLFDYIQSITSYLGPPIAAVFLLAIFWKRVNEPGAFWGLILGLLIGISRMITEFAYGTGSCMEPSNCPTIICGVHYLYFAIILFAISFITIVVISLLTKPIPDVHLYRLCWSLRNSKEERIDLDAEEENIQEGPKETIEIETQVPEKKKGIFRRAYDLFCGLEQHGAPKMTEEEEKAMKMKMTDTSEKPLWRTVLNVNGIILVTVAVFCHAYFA
Excerpt: A [^11C]-methyl-D-glucoside has been synthesized and biologically evaluated as a tracer of sodium dependent glucose transporters. […] A commentary on this paper was published in the same issue of the journal. […] In addition, three ^18F-fluoro-n-alkyl glucosides have been synthesized and evaluated as potential substrates for sodium/glucose cotransporters. […] There are limitations with these probes in that the lifetime of [^11C] is shorter than that of [^18F]
Optionally, additional information can be obtained by also administering one or more pharmacological or other agents to the animal, and monitoring the effect of the agent(s) on tracer uptake and distribution. Nonlimiting examples of suitable agents, include sodium ion, glucose, galactose, and phlorizin. […] Any therapeutic agent can also be used to evaluate its potential role and in vivo activity on SGLTs in various organs, using in vivo competitive kinetics with the radiolabeled tracer.

[9] = system: SGLTs; experiment: Whole body PET scan of Vervet monkey; assay type: in vivo; conditions: FIG. 3
Excerpt: Scans can be conducted both with and without administering one or more pharmacological agents, e.g., sodium, phlorizin, glucose, galactose, etc.
FIG. 3 is a nonlimiting example of a methyl 4-[^18F]-FDG whole body PET scan of a Vervet monkey.

[10] = system: sodium-dependent glucose transporters (SGLTs); experiment: Micro-PET tests in rodents and PET tests in Vervet monkeys and human volunteers: substrate specificity; assay type: in vivo; conditions: both anomeric forms
Excerpt: A nonlimiting example of a radiolabeled tracer according to the present invention is methyl 4-deoxy-4-[^18F]fluoro-D-glucopyranoside (“Me-4-[^18F]-FDG”), synthesized in either of its two anomeric forms, alpha-methyl 4-[^18F]-FDG and beta-methyl 4-[^18F]-FDG, or as a racemic mixture. […] For example, Me-4-[^18F]-FDG is not a substrate for GLUT1 in the blood brain barrier. It is a novel, high affinity tracer for SGLTs in those cells expressing SGLTs.

[11] = system: SGLT1; conditions: pumped into cells by SGLT1; cited from earlier work
[12] = substrate: O=C[C@H](O)[C@@H](O)[C@H](O)[C@H](O)CO; experiment: Kinetics of halogenated hexose transport by human SGLT1 expressed in Xenopus laevis oocytes, electrophysiological assay; assay type: cell-based; conditions: other: human SGLT1 in Xenopus laevis oocytes
Excerpt: (§1) We have expressed human SGLT1 in the Xenopus laevis oocyte expression system and measured the kinetics of halogenated hexose transport using standard electrophysiological assays (see Diez-Sampedro et al. J. Biological Chemistry, 2001, 276: 49188-49194). Table 2 presents kinetic measurements of the SGLT1 affinities of various sugars. […] “Km.” is the Michaelis-Menten constant and refers to the ability of a sugar to be a substrate for a specific enzyme or transporter. The lower the Km, the better the substrate. “Vmax” refers to the maximum velocity of transport (or enzymatic reaction). Km is the concentration of substrate at ½ Vmax. “Ki” is an inhibition constant for a specific enzyme or transporter, obtained by competitive kinetics against a known substrate.

[13] = substrate: O=C[C@H](O)[C@@H](O)[C@@H](O)[C@H](O)CO; experiment: as above; assay type: cell-based; conditions: other: human SGLT1 in Xenopus laevis oocytes
Excerpt: as §1

[14] = Barnett et al. 1973, read-out: inhibitor constants for sugar uptakes into human erythrocytes
[15] = Barnett et al. (1973), read-out: GLUT1 Ki

For `OCC1OC(O)C(O)C(F)C1O` (stereo not drawn), the Ki [1, 14] is given as ~7 mM, the Ki [1, 15] is given as 7 mM and the “substrate quality for hexokinase” value [2] is given as “poor substrates for hexokinase”. The “hexokinase affinity lower than that for D-glucose” value [3] was 400 fold, the “hexokinase maximum velocity lower than that for D-glucose” value [3] was 10 fold and the “Hexokinase Vmax” value [4] was 0.1. The Ki [4] was 70 mM.

In the case of `O=C[C@H](O)[C@@H](O)[C@@H](O)[C@H](O)CF`, the Ki [1, 14] is given as ~7 mM.

For `OC[C@H]1OC(F)[C@H](O)[C@@H](O)[C@@H]1O` (stereo partly drawn) [1-F-1-deoxy-D-glucose, 1-[^18F]fluoro-1-deoxy-D-glucose], the Ki [1, 15] is listed as 15 mM.

In the case of `OC[C@H]1OC([18F])[C@H](O)[C@@H](O)[C@@H]1O` (stereo partly drawn) [1-F-1-deoxy-D-glucose, 1-[^18F]fluoro-1-deoxy-D-glucose], the “substrate quality for hexokinase” value [2] is reported as “poor substrates for hexokinase”.

For `OC[C@H]1OC(O)[C@H](F)[C@@H](O)[C@@H]1O` (stereo partly drawn) [2-F-2-deoxy-D-glucose, 2-deoxy-2-[^18F]fluoro-D-glucose], the Ki [1, 15] is listed as 3.6 mM and the Ki [4] is listed as 0.2 mM.

For `OC[C@H]1OC(O)[C@H]([18F])[C@@H](O)[C@@H]1O` (stereo partly drawn) [2-F-2-deoxy-D-glucose, 2-deoxy-2-[^18F]fluoro-D-glucose], the “accumulation in the brain and elimination into the urinary bladder, PET” value ([5]; normal human subject, FIGS. 4 and 5) is given as “accumulated in the brain and eliminated into the urinary bladder”, the “brain uptake / crossing of the blood-brain barrier, microPET” value [6] is given as “cross the blood-brain barrier and accumulate in the brain” and the “Hexokinase Vmax” value [4] is given as 0.5.

For `O=C[C@H](O)[C@@H](O)[C@H](F)[C@H](O)CO` [4-F-4-deoxy-D-glucose], the Ki [4] is given as 84 mM.

In the case of `O=C[C@H](O)[C@@H](O)[C@H]([18F])[C@H](O)CO` [4-F-4-deoxy-D-glucose], the “substrate quality for hexokinase” value [2] is reported as “poor substrates for hexokinase”, the “hexokinase affinity lower than that for D-glucose” value [3] is reported as 400 fold and the “hexokinase maximum velocity lower than that for D-glucose” value [3] is reported as 10 fold. The “Hexokinase Vmax” value [4] was 0.1 and the “uptake into brain, microPET” value [7] was “taken up rapidly into rodent brains”.

For `O=C[C@H](O)[C@@H](O)[C@H](O)[C@H](O)CF` [6-F-4-deoxy-D-glucose], the Ki [1, 14] is listed as 1.3 mM and the Ki [1, 15] is listed as 1 mM.

In the case of `O=C[C@H](O)[C@@H](O)[C@H](O)[C@H](O)C[18F]` [6-F-4-deoxy-D-glucose], the “substrate quality for hexokinase” value [2] is listed as “poor substrates for hexokinase” and the “Hexokinase Vmax” value [4] is listed as 0.

For `O=C[C@H](O)[C@@H](O)[C@@H](O)[C@H](O)CO` [D-galactose], the Ki [1, 15] is given as 90 mM.

In the case of `O=C[C@H](O)[C@@H](O)[C@H](O)[C@H](O)CO` [D-glucose], the Ki [1, 14] is given as ~7 mM, the Ki [1, 15] is given as 6 mM and the “Hexokinase Vmax” value [4] is given as 1. The Ki [4] was 0.2 mM.

`COC1O[C@H](CO)[C@@H](F)[C@H](O)[C@H]1O` (stereo partly drawn) [Me-4-[^18F]-FDG, methyl 4-deoxy-4-[^18F]fluoro-D-glucopyranoside] showed a Km [8] of 50 µM.

For `COC1O[C@H](CO)[C@@H]([18F])[C@H](O)[C@H]1O` (stereo partly drawn) [Me-4-[^18F]-FDG, methyl 4-deoxy-4-[^18F]fluoro-D-glucopyranoside], the “excretion into the urinary bladder, whole body PET” value ([5]; patient with Glucose-Galactose-Malabsorption (missing functional SGLT1), FIG. 6) was “excretion of the tracer into the urinary bladder”, the “affinity for SGLT1” value [8] was 50 µM and the “brain uptake / crossing of the blood-brain barrier, microPET” value [6] was “lack of brain uptake”. The “tracer distribution, whole body PET” value [9] was “accumulated in the liver, heart, and kidneys, but not in the brain and little in the urinary bladder” and the “substrate for SGLTs / GLUTs” value [10] was “substrate for sodium-dependent glucose transporters (SGLTs), but not a substrate for GLUTs”.

For `CO[C@H]1O[C@H](CO)[C@@H](O)[C@H](O)[C@H]1O` [alpha-methyl-D-glucopyranoside], the “concentration in cells above plasma concentrations” value [11] is listed as ≤ 800 fold.

B1: human SGLT1 (Homo sapiens) (protein)
chain: T3 sequence (P13866 1-664)
notes: expressed in transfected cells; host or cells: Xenopus laevis oocytes
For B1, the Km [12] was 500 µM and the Km [13] was 600 µM.
